Assay results published in patent US10500198B2, “Bis-benzylidine piperidone proteasome inhibitor with anticancer activity” (The Johns Hopkins University, priority 2013, dated 2019).

Tests used:
cancer cells = assay: Antiproliferative activity against cancer cells (design rationale); assay type: cell-based
Source text: We used Chloro and Nitro functional groups as substituent's on the aromatic ring due to their greater electron withdrawing effect at ortho (or) para (or) meta (or) both positions along with different amino acid linkages on bis-benzylidine piperidone moiety. Amino acids were chosen based in their physical characteristics like very hydrophobic (phenylalanine), strongly basic and hydrophilic (lysine), basic and hydrophilic (histidine) and amphiphilic (glycine). Commercially available Fmoc and Boc protected amino acids were used in the synthesis, and they were evaluated for their antiproliferatory activity against cancer cells.
Next we synthesized another set of compounds by converting free amine functionality to its Acetate (Ac), Acrolyl (Acr) and Benzoyl […] analogs as these units are part of many anticancer drugs because of their smaller size and feasibility to form inter molecular hydrogen bonds with proteins.
In the RA195 molecule two amino functionalities of lysine can provide more flexibility to make better analogs.

[1] = system: TNFα-induced NFκB activation in 293 cells; assay: NFκB/FL reporter assay; assay type: cell-based; details: TNFα 10 ng/ml, 7 h
Procedure: 293 cells transiently transfected with either NFκB/FL (firefly luciferase reporter construct under control of an NFκB-driven promoter) or control CMV promoter-driven FL reporter construct were treated with compounds and TNFα (10 ng/ml) for 7 h. Upon the addition of luciferin, bioluminescence was measured in cell lysates using a luminometer. Results can be seen in FIG. 20.
293 cells transiently transfected with either NFκB/FL or control FL reporter genes were treated with compounds and TNFα (10 ng/ml) for 7 h. Upon the addition of luciferin, bioluminescence was measured in cell lysates using a luminometer.

purified 20S proteasomes = purified 20S proteasomes (Homo sapiens, UniProt P28072+P28074+Q99436); assay: 20S proteolytic activity assay; assay type: biochemical; details: 1 μM; for chymotryptic activity of the 20S proteasome (Suc-LLVY-AMC): 30 min
Procedure: (§1) Actin was used as a loading control. […] In FIG. 9C-E, purified 20S proteasomes were treated for 30 min with or without compounds (1 μM) prior to the addition of the specific fluorogenic substrate for chymotryptic (9C), tryptic (9D) or PGPH (9E) hydrolytic proteasome capacities. […] DMSO was added to all samples to a final concentration of 0.1% (upper panel). The effect of DMSO is highlighted by including ubiquitin—AMC (0.5 μM) hydrolysis with 2 nM UCH37 lacking DMSO (orange, bottom panel). In FIG. 9H, purified 19S RP (500 nM) in buffer was treated with corresponding compounds 30 min at 37° C. and AMC cleavage was measured with a fluorometer for 20 min. Ubal was used as a positive control.
Release of free AMC by the enzyme reaction was determined by measuring its fluorescence at 380 nm (excitation) and 440 nm (emission). The graphs shown are representative of at least three independent determinations and each data point is the mean of ±SD of triplicate determinations.
20S proteasome cleaves the chymotryptic substrate and releases fluorescent AMC.

[2] = system: polyubiquitinated proteins, p53 and p21 in HeLa cells; assay: Immunoblot of HeLa cell lysates; assay type: cell-based, human
Procedure: as §1, with “FIGS. 1 A-D show percent cell viability of RPMI-8226, ANBL6, and their respective in vitro selected bortezomib-resistant cell lines RPMI-8226-V10R and ANBL6-V10R as a function of 48 hr treatment with the indicated compounds. FIGS. 1 E-H show percent cell viability of indicated MM cell lines as a function of 48 hr treatment with the indicated compounds. […] Actin” for “Actin”, “capacities. Mean±SD fluorescence associated with AMC released from the substrate was measured at 45 min.” for “capacities.”
Total cellular protein (10-20 μg) from each sample was subjected to SDS-PAGE, transferred to PVDF membranes and analyzed by Western blot. […]

| Compound | antiproliferative potency among analogs (cancer cells) | TNFα-induced NFκB activation [1] | chymotryptic activity of the 20S proteasome (Suc-LLVY-AMC) (purified 20S proteasomes) | CP chymotryptic, tryptic, and PGPH activities (purified 20S proteasomes; 30 min pre-treatment) | levels of K48-linked polyubiquitinated proteins ([2]; 4 hr) | levels of p53 and p21 proteins ([2]; 1 μM, 12 h) | poly-ubiquitinated (Poly UB) proteins ([2]; 1 μM, 12 h) |
| --- | --- | --- | --- | --- | --- | --- | --- |
| Cl.N[C@@H](Cc1ccccc1)C(=O)N1CC(=Cc2ccc(Cl)c(Cl)c2)C(=O)C(=Cc2ccc(Cl)c(Cl)c2)C1 [RA190, 3,5-bis(3,4-dichlorobenzylidene)-1-(S-2-amino-3-phenyl)-piperidin-4-one-HCl salt] | higher potency | Inhibits TNFα-Induced NFκB Activation | do not | does not inhibit | dramatically increased | – | – |
| Cl.NCCCC[C@H](NC(=O)OCC1c2ccccc2-c2ccccc21)C(=O)N1C/C(=C\c2ccc(Cl)c(Cl)c2)C(=O)/C(=C/c2ccc(Cl)c(Cl)c2)C1 [RA195] | higher potency | inhibited TNFα-induced NFκB activation | do not | – | – | elevated the levels of p53 and p21 proteins | caused the accumulation of poly-ubiqutinated (Poly UB) proteins |
